Test results reported in US20260018245A1, “SYSTEMS AND METHODS FOR IDENTIFYING AND TARGETING COLLATERAL LETHAL GENES” (The Regents of the University of Michigan, priority 2022, published 2026).

Key:
SKOV3 cells = experiment: Oxygen consumption rate (OCR) measurement; format: cell-based
Procedure: FIG. 4 Dynamic flux analysis with parallel tracers to quantify oxidative MTHFD2 flux. a, Oxidative MTHFD2 flux and percentage decrease in OCRfollowing MTHFD2 inhibition in SKOV3 cells treated with rotenone (0, 31, 62, 125, 250, 500 or 1,000 nM) and MTHFD2 inhibitor (0 or 60 μM). Oxidative MTHFD2 flux is proportional to [2H1]-serine/[2H1]-NADH enrichment in cells cultured with 4-[2H]-glucose for 8 h. Percentage decrease in OCR is estimated in SKOV3 cells treated with 60 μM MTHFD2i compared with 0 μM MTHFD2i. Oxidative flux data are combined from two independent experiments (n=4), with mean±s.d. estimated using error propagation. OCR data are representative of two independent experiments and presented as mean±s.d. estimated using error propagation (n=5). b, Reductive MTHFD2 flux and basal OCR in SKOV3 cells treated with rotenone (0, 31, 62, 125, 250 or 1,000 nM) and MTHFD2 inhibitor (0 or 60 μM). Reductive MTHFD2 flux is proportional to [2H1]-NADH in cells cultured with 2,3,3-[2H]-serine for 8 h. OCR data are representative of two independent experiments and presented as mean±s.e.m. (n=5). c, Schematic of combination tracer experiment with 4-[2H]-glucose and [2H]-formate to track oxidative MTHFD2 flux. […] (n=6) and analysed using two-tailed Welch's t-test. e, Ratio of [2H2]-serine/[2H]-NADH enrichment in SKOV3 and OVCAR8 cells at 2 h after combined tracer introduction of 4-[2H]-glucose and [2H]-formate, representing the normalized contribution of [2H]-NADH to [2H2]-serine via oxidative MTHFD2 flux. Data combined from two independent experiments (n=6), with mean±s.d. estimated using error propagation and analysed by two-tailed Welch's t-test. f, [2H2]-serine enrichment in SKOV3 cells expressing shScramble or shUQCR11 at 2 h after combined tracer introduction of 4-[2H]-glucose and [2H]-formate. […] (n=5) and analysed using one-tailed non-parametric Mann-Whitney test.
OCR measurement. […] Live OCR was measured for up to 16 h after attaching the lid.
Mito stress test with the Seahorse analyser. Mitochondrial OCR was measured using a Seahorse XFe96 analyser (Agilent Technologies). […]

[1] = tested on: oxidative MTHFD2 flux in SKOV3 cells; experiment: Oxidative MTHFD2 flux by 4-[2H]-glucose tracing; format: cell-based; details: SKOV3 treated with rotenone and MTHFD2 inhibitor 60 μM
Procedure: FIG. 4 Dynamic flux analysis with parallel tracers to quantify oxidative MTHFD2 flux. a, Oxidative MTHFD2 flux and percentage decrease in OCRfollowing MTHFD2 inhibition in SKOV3 cells treated with rotenone (0, 31, 62, 125, 250, 500 or 1,000 nM) and MTHFD2 inhibitor (0 or 60 μM). Oxidative MTHFD2 flux is proportional to [2H1]-serine/[2H1]-NADH enrichment in cells cultured with 4-[2H]-glucose for 8 h. Percentage decrease in OCR is estimated in SKOV3 cells treated with 60 μM MTHFD2i compared with 0 μM MTHFD2i. Oxidative flux data are combined from two independent experiments (n=4), with mean±s.d. estimated using error propagation. […] (n=6) and analysed using two-tailed Welch's t-test. e, Ratio of [2H2]-serine/[2H]-NADH enrichment in SKOV3 and OVCAR8 cells at 2 h after combined tracer introduction of 4-[2H]-glucose and [2H]-formate, representing the normalized contribution of [2H]-NADH to [2H2]-serine via oxidative MTHFD2 flux. Data combined from two independent experiments (n=6), with mean±s.d. estimated using error propagation and analysed by two-tailed Welch's t-test. f, [2H2]-serine enrichment in SKOV3 cells expressing shScramble or shUQCR11 at 2 h after combined tracer introduction of 4-[2H]-glucose and [2H]-formate. […] (n=5) and analysed using one-tailed non-parametric Mann-Whitney test. […]

Cc1c(N2CCN(C)[C@@H](C)C2)ccc2c3c(c(=O)oc12)CN(C(=O)c1ccc(NS(C)(=O)=O)c(OC(F)(F)F)c1)CC3 [DS18561882]
OCR (SKOV3 cells; SKOV3, low range of rotenone doses plus MTHFD2 inhibitor 60 μM): synergistic decrease | OCR (SKOV3 cells; SKOV3, rotenone doses >62 nM plus MTHFD2 inhibitor): did not detrimentally affect OCR | oxidative MTHFD2 flux [1]: suppressed
